According to patent US20240182465A1 (GENFLEET THERAPEUTICS (SHANGHAI) INC., priority 2021, published 2024):
Where a name gives a salt, the structure may show the parent alone.

Columns and labels:
HPK1 [1] = target: T1, HPK1 (Homo sapiens, UniProt Q92918); assay: HPK1 kinase activity assay (ADP-Glo); details: HPK1 Kinase activity IC50 (nM), 1 nM HPK1, 10 μM ATP, 0.1 μg/μL MBP
T1 sequence (Q92918 1-346 limits assumed): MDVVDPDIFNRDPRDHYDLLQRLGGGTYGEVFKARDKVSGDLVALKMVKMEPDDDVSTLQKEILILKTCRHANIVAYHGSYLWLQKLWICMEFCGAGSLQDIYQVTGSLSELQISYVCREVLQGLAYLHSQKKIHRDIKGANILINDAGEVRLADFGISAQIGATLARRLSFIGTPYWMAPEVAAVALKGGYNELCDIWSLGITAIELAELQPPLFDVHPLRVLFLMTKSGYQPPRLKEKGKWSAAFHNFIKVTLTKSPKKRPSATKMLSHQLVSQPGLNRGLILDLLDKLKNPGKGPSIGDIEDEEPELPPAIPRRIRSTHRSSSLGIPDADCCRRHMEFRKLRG

HPK1 [2] = target: HPK1 (Homo sapiens, UniProt Q92918); assay: SLP76 phosphorylation assay (intracellular HPK1 inhibitory activity, p-SLP76 Ser376 sandwich ELISA); details: p-SLP76 IC50(nM), Jurkat, Clone E6-1 cells; 1 h compound pre-incubation, anti-CD3 beads stimulation 20 min; SLP76 phosphorylation at S376
Target sequence in this assay (Q92918 whole entry): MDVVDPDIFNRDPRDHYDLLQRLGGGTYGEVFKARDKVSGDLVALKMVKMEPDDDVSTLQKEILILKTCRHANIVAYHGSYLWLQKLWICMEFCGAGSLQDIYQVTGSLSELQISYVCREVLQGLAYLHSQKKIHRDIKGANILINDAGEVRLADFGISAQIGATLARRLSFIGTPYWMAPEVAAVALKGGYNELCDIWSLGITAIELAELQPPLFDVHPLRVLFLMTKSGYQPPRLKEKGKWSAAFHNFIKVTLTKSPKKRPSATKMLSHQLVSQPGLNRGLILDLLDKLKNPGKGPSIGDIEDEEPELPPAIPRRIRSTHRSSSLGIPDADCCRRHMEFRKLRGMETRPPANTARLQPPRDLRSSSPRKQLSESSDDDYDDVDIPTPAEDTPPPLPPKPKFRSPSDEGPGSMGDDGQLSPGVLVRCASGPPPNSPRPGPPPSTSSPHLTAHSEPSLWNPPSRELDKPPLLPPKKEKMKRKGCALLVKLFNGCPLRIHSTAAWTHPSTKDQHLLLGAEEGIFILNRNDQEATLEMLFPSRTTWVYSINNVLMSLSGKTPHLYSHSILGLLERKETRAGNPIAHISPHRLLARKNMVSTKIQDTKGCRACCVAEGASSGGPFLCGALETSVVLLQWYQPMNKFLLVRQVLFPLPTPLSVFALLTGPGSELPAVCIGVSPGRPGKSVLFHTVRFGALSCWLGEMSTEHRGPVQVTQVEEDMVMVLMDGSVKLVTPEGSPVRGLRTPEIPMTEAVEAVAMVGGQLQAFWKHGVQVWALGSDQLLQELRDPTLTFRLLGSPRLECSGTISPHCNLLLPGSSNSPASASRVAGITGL

Row | IC50 (HPK1 [1]) [nM] | IC50 (HPK1 [2]) [nM] | Compound
1 | 0.51 | 444 | COc1cc(C(=O)N2CCc3cc(-c4cnc5[nH]cc(C)c5c4)cc([C@@H]4CCCN4)c3C2)ccn1 [Compound Z215, (S)-(6-(3-methyl-1H-pyrrolo[2,3-b]pyridin-5-yl)-8-(pyrrolidin-2-yl)-3,4-dihydroisoquinolin-2(1H)-yl) (2-methoxypyridin-4-yl)methanone]
2 | 0.44 | 133 | CCNC(=O)N1CCc2cc(-c3cnc4[nH]cc(C)c4c3)cc([C@@H]3CCCN3)c2C1 [Compound Z217, (S)—N-ethyl-6-(3-methyl-1H-pyrrolo[2,3-b]pyridin-5-yl)-8-(pyrrolidin-2-yl)-3,4-dihydroisoquinoline-2(1H)-carboxamide]
3 | 0.56 | 146 | Cc1c[nH]c2ncc(-c3cc4c(c([C@@H]5CCCN5)c3)CCN(C(=O)CC3CCOCC3)C4)cc12 [Compound Z311, 1-[7-(3-methyl-1H-pyrrolo[2,3-b]pyridin-5-yl)-5-[(2S)-tetrahydro-1H-pyrrol-2-yl]-1,2,3,4-tetrahydroisoquinolin-2-yl]-2-(3,4,5,6-tetrahydro-2H-pyran-4-yl)ethan-1-one]
4 | 0.25 | 170 | CCn1cc(C(=O)N2CCc3cc(-c4cnc5[nH]cc(C)c5c4)cc([C@@H]4CCCN4)c3C2)cn1 [Compound Z335, (S)-(1-ethyl-1H-pyrazol-4-yl)-[6-(3-methyl-1H-pyrrolo[2,3-b]pyridin-5-yl)-8-[pyrrolidin-2-yl]-3,4-dihydroisoquinolin-2(1H)-yl]methanone]
5 | 1.48 | 354 | Nc1ncc(-c2cc3c(c([C@@H]4CCCN4)c2)COCC3)cc1-c1nccs1 [Compound Z238, (S)-5-(8-(pyrrolidin-2-yl)isochroman-6-yl)-3-(thiazol-2-yl)pyridin-2-amine]
6 | 0.7 | 174 | Cc1cc(C(=O)N2CCc3cc(-c4cnc5[nH]cc(C)c5c4)cc([C@@H]4CCCN4)c3C2)ncn1 [Compound Z331, (S)-(6-(3-methyl-1H-pyrrolo[2,3-b]pyridin-5-yl)-8-(pyrrolidin-2-yl)-3,4-dihydroisoquinolin-2(1H)-yl) (6-methylpyrimidin-4-yl)methanone]
7 | 2.06 | 441 | Cc1c[nH]c2ncc(-c3cc4c(c([C@@H]5CCCN5)c3)CCN(CC(F)(F)F)C4)cc12 [Compound Z308, (S)-7-(3-methyl-1H-pyrrolo[2,3-b]pyridin-5-yl)-5-(pyrrolidin-2-yl)-2-(2,2,2-trifluoroethyl)-1,2,3,4-tetrahydroisoquinoline]
8 | 0.23 | 89.8 | C[C@](O)(C(=O)N1CCc2cc(-c3cnc4[nH]cc(Cl)c4c3)cc([C@@H]3CCCN3)c2C1)C(F)(F)F [Compound Z405, (S)-1-(6-(3-chloro-1H-pyrrolo[2,3-b]pyridin-5-yl)-8-((S)-pyrrolidin-2-yl)-3,4-dihydroisoquinolin-2(1H)-yl)-3,3,3-trifluoro-2-hydroxy-2-methylpropan-1-one]
9 | 0.35 | 96.6 | Cc1c[nH]c2ncc(-c3cc4c(c([C@@H]5CCCN5)c3)CN(C(=O)C3(O)CCOCC3)CC4)cc12 [Compound Z244, (S)-(4-hydroxytetrahydro-2H-pyran-4-yl)(6-(3-methyl-11H-pyrrolo[2,3-b]pyridin-5-yl)-8-(pyrrolidin-2-yl)-3,4-dihydroisoquinolin-2(1H)-yl)methanone]
10 | 35.3 | > 10000 | Cc1c[nH]c2ncc(-c3cc4c(c(C5CC(=O)N5)c3)COCC4)cc12 (stereo not shown) [Compound Z231, 4-(6-(3-methyl-1H-pyrrolo[2,3-b]pyridin-5-yl)isochroman-8-yl)azetidin-2-one]
11 | 3.8 | 2400 | Cc1c[nH]c2ncc(-c3cc4c(c([C@@H]5CCCN5)c3)CN(C(=O)Nc3cccnc3)C4)cc12 [Compound Z387, (S)-6-(3-methyl-1H-pyrrolo[2,3-b]pyridin-5-yl)-N-(pyridin-3-yl)-4-(pyrrolidin-2-yl)isoindoline-2-carboxamide]

Row | Compound | IC50 (HPK1 [1]) [nM] | IC50 (HPK1 [2]) [nM]
12 | Cc1c[nH]c2ncc(-c3cc4c(c(C5COCCN5)c3)CN(C(=O)[C@](C)(O)C(F)(F)F)CC4)cc12 (stereo partly drawn) [Compound Z296, (2S)-3,3,3-trifluoro-2-hydroxy-2-methyl-1-(6-(3-methyl-1H-pyrrolo[2,3-b]pyridin-5-yl)-8-(morpholin-3-yl)-3,4-dihydroisoquinolin-2(1H)-yl)propan-1-one] | 0.86 | 223
13 | Cc1c[nH]c2ncc(-c3cc4c(c(CN5CC6CCC(C5)N6C)c3)COCC4)cc12 [Compound Z113, 3-methyl-5-(8-((8-methyl-3,8-diazabicyclo[3.2.1]octan-3-yl)methyl)isochroman-6-yl)-1H-pyrrolo[2,3-b]pyridine] | 62.2 | 10000
14 | Cc1c[nH]c2ncc(-c3cc4c(c([C@@H]5CCCN5)c3)CN(C(=O)N3CCC(F)(F)CC3)CC4)cc12 [Compound Z440, (S)-(4,4-difluoropiperidin-1-yl)(6-(3-methyl-1H-pyrrolo[2,3-b]pyridin-5-yl)-8(pyrrolidin-2-yl)-3,4-dihydroisoquinolin-2(1H)-yl)methanone] | 0.37 | 142
15 | Cc1c[nH]c2ncc(-c3cc4c(c([C@@H]5CCCN5)c3)CN(C(=O)c3cn(C(C)C)nc3C(F)(F)F)CC4)cc12 [Compound Z348, (S)-[1-isopropyl-3-(trifluoromethyl)-1H-pyrazol-4-yl]-[6-(3-methyl-1H-pyrrolo[2,3-b]pyridin-5-yl)-8-[pyrrolidin-2-yl]-3,4-dihydroisoquinolin-2(1H)-yl]methanone] | 0.75 | 183
16 | CCNC(=O)N1CCc2c(cc(-c3cnc4[nH]cc(C)c4c3)cc2[C@@H]2CCCN2)C1 [Compound Z295, (S)—N-ethyl-7-(3-methyl-1H-pyrrolo[2,3-h]pyridin-5-yl)-5-(pyrrolidin-2-yl)-3,4-dihydroisoquinoline-2(1H)-carboxamide] | 1.22 | 214
17 | Cc1c[nH]c2ncc(-c3cc4c(c([C@@H]5CCCN5)c3)CN(C(=O)N3CCOC[C@H]3C)CC4)cc12 [Compound Z358-2, (6-(3-methyl-1H-pyrrolo[2,3-b]pyridin-5-yl)-8-((S)-pyrrolidin-2-yl)-3,4-dihydroisoquinolin-2(1H)-yl) ((R)-3-methylmorpholin)methanone] | 0.23 | 53.2
18 | COC(=O)N1CCc2c(cc(-c3cnc4[nH]cc(C)c4c3)cc2[C@@H]2CCCN2)C1 [Compound Z305, methyl (S)-7-(3-methyl-1H-pyrrolo[2,3-b]pyridin-5-yl)-5-(pyrrolidin-2-yl)-3,4-dihydroisoquinoline-2(1H)-carboxylate] | 0.84 | 297
19 | Cc1c[nH]c2ncc(-c3cc4c(c([C@@H]5CCCN5)c3)CN(C(=O)N3CC5CCC(C3)O5)CC4)cc12 [Compound Z389, (8-oxa-3-azabicyclo[3.2.1]octan-3-yl)(6-(3-methyl-1H-pyrrolo[2,3-b]pyridin-5-yl)-8-((S)-pyrrolidin-2-yl)-3,4-dihydroisoquinolin-2(1H)-yl)methanone] | 0.21 | 47.1
20 | COCC(=O)N1Cc2cc(-c3cnc4[nH]cc(C)c4c3)cc([C@@H]3CCCN3)c2C1 [Compound Z261, (S)-2-methoxy-1-(6-(3-methyl-1H-pyrrolo[2,3-b]pyridin-5-yl)-4-(pyrrolidin-2-yl)isoindolin-2-yl)ethan-1-one hydrochloride] | 2.63 | 842
